From patent US11596647B2, “Administration of synergistic amounts of modified citrus pectin and honokiol to treat inflammation and anti-oxidant needs” (ECONUGENICS INC, priority 2016, dated 2023)

Assay: Antioxidant activity, ABTS microplate assay (Trolox standard)
Type: biochemical
Conditions: FIG. 3; result in words
Excerpt: Since antioxidants neutralize the ROS, antioxidant activity of the nutraceutical would be of importance for product development. The principle underlying the antioxidant assay is formation of a ferryl myoglobin radical from metmyoglobin and hydrogen peroxide, which oxidizes ABTS (2,2′-azino-bis(3-ethylbenzthiazoline-6-sulfonic acid) to produce radical cation, ABTS+, a soluble chromogen that is green in color and can be determined spectrophotometrically at 405 nm. Antioxidants suppress the production of the radical cation in a concentration dependent manner and the color intensity decreases proportionally. Trolox, a water soluble vitamin E analog, is used as a control antioxidant for analyzing the antioxidant activity of other nutraceuticals/compounds. Microplate assay was used for the analysis of antioxidant activity with different products according to the procedure described in the Antioxidant assay kit (Sigma-Aldrich, St. Louis, Mo.). The relative antioxidant concentration (mM equivalent of Trolox standard) was calculated from the absorbance readings.

C=CCc1ccc(O)c(-c2ccc(O)c(CC=C)c2)c1 [H, honokiol]
antioxidant activity (relative ranking): least anti-oxidant activity
